The target of this assay is T1, NAD(+) hydrolase SARM1 (Homo sapiens, UniProt Q6SZW1).
T1 sequence (Q6SZW1 whole entry): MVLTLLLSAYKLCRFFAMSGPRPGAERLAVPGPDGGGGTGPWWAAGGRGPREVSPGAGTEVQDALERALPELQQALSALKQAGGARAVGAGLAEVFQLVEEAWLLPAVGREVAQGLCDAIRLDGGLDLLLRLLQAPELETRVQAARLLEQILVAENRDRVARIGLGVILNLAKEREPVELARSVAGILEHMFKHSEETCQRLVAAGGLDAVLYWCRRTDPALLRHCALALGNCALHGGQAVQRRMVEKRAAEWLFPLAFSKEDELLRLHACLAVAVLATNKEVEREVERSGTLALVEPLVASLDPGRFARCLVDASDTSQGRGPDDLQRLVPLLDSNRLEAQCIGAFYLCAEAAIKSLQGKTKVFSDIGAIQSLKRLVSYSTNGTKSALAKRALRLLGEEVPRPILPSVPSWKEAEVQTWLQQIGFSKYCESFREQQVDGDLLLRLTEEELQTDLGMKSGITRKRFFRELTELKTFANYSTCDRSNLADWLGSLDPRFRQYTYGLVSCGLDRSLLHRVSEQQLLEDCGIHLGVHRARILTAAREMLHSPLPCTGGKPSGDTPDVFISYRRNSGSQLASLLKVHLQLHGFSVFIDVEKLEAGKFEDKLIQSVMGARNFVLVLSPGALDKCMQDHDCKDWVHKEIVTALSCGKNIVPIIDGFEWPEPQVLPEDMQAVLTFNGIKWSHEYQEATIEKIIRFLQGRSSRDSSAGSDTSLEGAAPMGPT
The assay can be described thus: ARM-SAM-TIR IC50 Assay. The protocol:
The enzymatic assay was performed in a 384-well polypropylene plate in Dulbecco's PBS buffer in a final assay volume of 20 μL. ARM-SAM-TIR lysate with a final concentration of 5 μg/mL was pre-incubated with the respective compound at 1% DMSO final assay concentration over 2 h at room temperature. The reaction was initiated by addition of 5 μM final assay concentration of NAD+ as substrate. After a 2 hr room temperature incubation, the reaction was terminated with 40 μL of stop solution of 7.5% trichloroactetic acid in acetonitrile. The NAD+ and ADPR concentrations were analyzed by a RapidFire High Throughput Mass Spectrometry System (Agilent Technologies, Santa Clara, Calif.) using an API4000 triple quadrupole mass spectrometer (AB Sciex Framingham, Mass.).

Results on one compound are retold here after BindingDB's records for patent US12331033 (Disarm Therapeutics, 2025).

A value given as a limit tells only on which side of the number the result lay.

The compound `Cc1c(-c2ccncc2)n[nH]c1NC(=O)COc1ccc(Cl)c(F)c1` [US12331033, Example 291] gave a half-inhibitory concentration (IC50) of less than 5 µM.

What is called IC50 is the midpoint of a concentration-inhibition curve. Read a low IC50 as greater potency.
